Measured values reported in patent publication US9447081B2, “Substituted pyrimidines as pharmaceuticals and insecticides” (SHENYANG SINOCHEM AGROCHEMICALS R&D CO., LTD., priority 2012, dated 2016).

Key:
armyworm = test: Insecticidal activity against armyworm (airbrush spray); format: in vivo; settings: second instar larvae, mortality after 72 h
Description: (§1) Compounds were dissolved in mixed solvent (acetone:methanol=1:1), and diluted to required concentration with water containing 0.1% of tween 80.
(§2) Diamond back moth, armyworm, Green Peach Aphid and carmine spider mite were used as targets and the method of spraying by airbrush was used for determination of insecticidal biassays.
(§3) The method of spraying by airbrush: The corn leaves were made into plates of 2 cm diameter by use of punch. A test solution (0.5 ml) was sprayed by airbrush at the pressure of 0.7 kg/cm^2 to both sides of every plate. 10 Second instar larvae were put into the petri-dishes after the leaf disc air-dried and 3 replicates were set for each treatment. Then the insects were maintained in observation room (25° C., 60˜70% R.H.). Scores were conducted and mortalities were calculated after 72 h.

carmine spider mite = test: Acaricidal activity against carmine spider mite (airbrush spray); format: in vivo; settings: Tetranychus cinnabarinus; 100 mg/L, adults, mortality after 72 hrs
Description: as §1, §2
Method: Broadbean shoots with two true leaves in pot were taken, the healthy adults of carmine spider mite were inoculated to the leaves. The adults were counted and then sprayed with airbrush at the pressure of 0.7 kg/cm^2 and at dose of 0.5 ml. 3 replicates were set for each treatment. And then they were maintained in standard observation room. Scores were conducted and mortalities were calculated after 72 hrs.

diamond back moth = test: Insecticidal activity against diamond back moth (airbrush spray); format: in vivo; settings: mortality after 72 h; for pest or weed control at 600 µg/mL: read-out: control of the second instar larvae of diamond back moth
Description: as §1, §2
as §3, with “cabbage” for “corn”

[1] = tested on: Green peach aphids (Myzus Persicae Sulzer); test: Activity against green peach aphid (airbrush foliar spray); format: in vivo; settings: death rate after 48 h; for pest or weed control at 600 µg/mL / pest or weed control at 10 µg/mL / pest or weed control at 100 µg/mL: Myzus persicae, foliar, 48 h; for pest or weed control at 600 µg/mL / pest or weed control at 100 µg/mL: read-out: Insecticidal activity against peach aphid (control); for pest or weed control at 10 µg/mL / Insecticidal activity against peach aphid: 10 mg/L; for pest or weed control at 10 µg/mL: read-out: Insecticidal activity against peach aphid
Description: as §1, §2
Method: Filter papers were put in culture dishes (Diameter=6 cm), and water was dripped on filter papers for preserving moisture. Green peach aphids (Myzus Persicae Sulzer) were maintained on cabbage. Leaves (Diameter=3 cm) of approximately 15-30 aphids were put in the culture dishes. Bioactivity tests were used the method of Airbrush Foliar Spray, pressure=10 psi (0.7 kg/cm2), spray volume=0.5 mL. The studies were conducted at three constant temperatures 25±1 C. in incubator cabinets with 60±5% RH. Survey the survival aphids after 48 h and calculate the death rates.

corn rust = test: Protectant activity in vivo (whole plant), corn rust; settings: for pest or weed control at 400 µg/mL / pest or weed control at 100 µg/mL / pest or weed control at 25 µg/mL: Zea mays, 168 h, read-out: protectant activity against corn rust
Description: (§4) The method is as followed: The whole plant is used in this test. The compound is dissolved in a proper solvent to get mother solution. The proper solvent is selected from acetone, methanol, DMF and so on according to their dissolving capability to the sample. […] The testing solution is sprayed to the host plant by a special plant sprayer. The plant is inoculated with fungus after 24 hours. According to the infecting characteristic of fungus, the plant is stored in a humidity chamber and then transferred into greenhouse after infection is finished. And the other plants are placed in greenhouse directly. The activity of compound is obtained by eyeballing after 7 days in common.

cucumber gray mold = test: Fungicidal activity in vitro (96-well, High Through Put), cucumber gray mold; format: cell-based; settings: 25 mg/L, 24 hours; for inhibition at 25 µg/mL: read-out: inhibition rate against cucumber gray mold
wheat powdery mildew = test: Protectant activity in vivo (whole plant), wheat powdery mildew
Description: as §4

cucumber downy mildew = test: Protectant activity in vivo (whole plant), cucumber downy mildew
Description: as §4

rice blast = test: microbe, parasite or virus in culture; format: cell-based
[2] = tested on: human bladder cancer cell line T24; test: In vitro cell inhibition assay against human cancer cell T24; format: cell-based; settings: 10 μM, incubation for one week, crystal violet
Description: The tested compounds are dissolved in DMSO and diluted to designed concentration with culture medium.
The of cell culture technology in vitro was selected to evaluate growth inhibition rate against human bladder cancer cell line T24. 1000 to 3000 cells were inoculated into 24-well plate, followed by addition of cell culture medium (1 mL) known for technicans in this field (culture medium is RMPI-1640), after cells were cultured in incubator (CO2 5%, 37° C.) for 24 hours, then the tested compounds with designed concentration were added to each well. […] After incubation for one week, the culture medium was removed, the plate wells were washed with cold PBS once, fixed with 1% formalin at room temperature for 10 minutes, and washed with cold PBS one more time, followed by stain with 0.1% crystal violet for 30 minutes. Crystal violet can be recycled. The stained cells were washed with deionized water gently, dried in the air and reserved, were then incubated for 4 h. The inhibition rate was calculated according to the left cells of each treatment and contrast.
The inhibition rate=the left cells of each treatment/the left cells of contrast×100%

[3] = Triticum aestivum, 168 h, 400 mg/L, read-out: protectant activity against wheat powdery mildew
[4] = Cucumis sativus, 168 h, 400 mg/L, read-out: protectant activity against cucumber downy mildew
[5] = Pyricularia oryzae, 24 h, read-out: inhibition rate against rice blast
[6] = Cucumis sativus, 168 h, 100 mg/L, read-out: protectant activity against cucumber downy mildew
[7] = Triticum aestivum, 168 h, 25 mg/L, read-out: protectant activity against wheat powdery mildew
[8] = Triticum aestivum, 168 h, 100 mg/L, read-out: protectant activity against wheat powdery mildew

Row | Structure (SMILES) | pest or weed control at 600 µg/mL (armyworm; 600 mg/L) [%] | pest or weed control at 100 µg/mL (carmine spider mite) [%] | pest or weed control at 600 µg/mL (diamond back moth; 600 mg/L) [%] | pest or weed control at 600 µg/mL ([1]; 600 mg/L) [%] | pest or weed control at 400 µg/mL (corn rust; 400 mg/L) [%] | inhibition at 25 µg/mL (cucumber gray mold) [%] | pest or weed control at 400 µg/mL (wheat powdery mildew; [3]) [%] | pest or weed control at 400 µg/mL (cucumber downy mildew; [4]) [%] | inhibition at 25 µg/mL (rice blast; [5]) [%] | pest or weed control at 100 µg/mL (corn rust; 100 mg/L) [%] | pest or weed control at 100 µg/mL ([1]; 100 mg/L) [%] | other results
1 | c1ccc2c(NCCc3ccc4c(c3)OCO4)ncnc2c1 [ACTA-1] | 40 | 0 | 40 | 0 | 0 | 50 | 0 | – | – | – | – | –
2 | COc1cc(CNc2ncnc(C)c2Cl)ccc1O [CK3] | 0 | 0 | 0 | 0 | 0 | 0 | 0 | 0 | – | – | – | –
3 | Cc1ncnc(NCCc2ccc(O)cc2)c1Cl [CK4] | 0 | 0 | 0 | 0 | 0 | 0 | 0 | 0 | 0 | – | – | –
4 | COc1ccc(CCNc2ncnc(C)c2Cl)cc1OC [CK8] | 0 | – | 0 | 0 | 100 | 0 | 100 | 98 | 50 | 0 | – | pest or weed control at 25 µg/mL (cucumber downy mildew; Cucumis sativus, 168 h, 25 mg/L, read-out: protectant activity against cucumber downy mildew): 0%; pest or weed control at 50 µg/mL (cucumber downy mildew; Cucumis sativus, 168 h, 50 mg/L, read-out: protectant activity against cucumber downy mildew): 20%; pest or weed control at 100 µg/mL (cucumber downy mildew; [6]): 45%; pest or weed control at 6.25 µg/mL (wheat powdery mildew; Triticum aestivum, 168 h, 6.25 mg/L, read-out: protectant activity against wheat powdery mildew): 0%; pest or weed control at 25 µg/mL (wheat powdery mildew; [7]): 10%; pest or weed control at 100 µg/mL (wheat powdery mildew; [8]): 80%
5 | Cc1c(Cl)c(NCCc2ccc3c(c2)OCO3)nc[n+]1CC(=O)c1ccc(Cl)cc1 [CK10] | 0 | 0 | 0 | 0 | 0 | 0 | 0 | 0 | 0 | – | – | –
6 | ClCc1ncnc(NCCc2ccc3c(c2)OCO3)c1Cl [CK11] | 0 | 25 | 0 | 88 | 85 | 50 | 0 | 30 | – | 35 | 0 | pest or weed control at 100 µg/mL (cucumber downy mildew; [6]): 0%; pest or weed control at 10 µg/mL [1]: 0%; pest or weed control at 25 µg/mL (corn rust; 25 mg/L): 0%
7 | c1ccc2c(NCc3ccc4c(c3)OCO4)ncnc2c1 [CK13] | 0 | 0 | 0 | 50 | 40 | 0 | 0 | 0 | 0 | 0 | 0 | pest or weed control at 10 µg/mL [1]: 0%
8 | Cc1ncnc(NCCc2ccc3c(c2)OCO3)c1Cl [Compound 5] | – | – | – | – | – | – | – | – | – | – | – | protectant activity against cucumber downy mildew (cucumber downy mildew; 12.5 mg/L): 100%; protectant activity against cucumber downy mildew (cucumber downy mildew; 25 mg/L): 100%; protectant activity against cucumber downy mildew (cucumber downy mildew; 50 mg/L): 100%; protectant activity against cucumber downy mildew (cucumber downy mildew; 100 mg/L): 100%; protectant activity against cucumber downy mildew (cucumber downy mildew; 400 mg/L): 100%; inhibition rate against rice blast (rice blast; in vitro, 25 mg/L, 24 hours): 80%; inhibition rate against bladder cancer cell line T24 [2]: 100%; Insecticidal activity against peach aphid [1]: 0%; Insecticidal activity against peach aphid (control) ([1]; 100 mg/L): 52%; Insecticidal activity against peach aphid (control) ([1]; 600 mg/L): 100%; protectant activity against corn rust (corn rust; 6.25 mg/L): 100%; protectant activity against corn rust (corn rust; 25 mg/L): 100%; protectant activity against corn rust (corn rust; 100 mg/L): 100%; protectant activity against corn rust (corn rust; 400 mg/L): 100%; protectant activity against wheat powdery mildew (wheat powdery mildew; 6.25 mg/L): 75%; protectant activity against wheat powdery mildew (wheat powdery mildew; 25 mg/L): 85%; protectant activity against wheat powdery mildew (wheat powdery mildew; 100 mg/L): 100%; protectant activity against wheat powdery mildew (wheat powdery mildew; 400 mg/L): 100%
9 | CCc1ncnc(NCCc2ccc3c(c2)OCO3)c1Cl [Compound 6] | – | – | – | – | – | – | – | – | – | – | – | control of the armyworm (armyworm; 100 mg/L): 90%; control of the armyworm (armyworm; 600 mg/L): 90%; inhibition rate against bladder cancer cell line T24 [2]: 100%; control of the second instar larvae of diamond back moth (diamond back moth; 100 mg/L): 90%; control of the second instar larvae of diamond back moth (diamond back moth; 600 mg/L): 100%; Insecticidal activity against peach aphid [1]: 100%; Insecticidal activity against peach aphid (control) ([1]; 100 mg/L): 100%; Insecticidal activity against peach aphid (control) ([1]; 600 mg/L): 100%; protectant activity against corn rust (corn rust; 6.25 mg/L): 90%; protectant activity against corn rust (corn rust; 25 mg/L): 100%; protectant activity against corn rust (corn rust; 100 mg/L): 100%; protectant activity against corn rust (corn rust; 400 mg/L): 100%; inhibition rate against cucumber gray mold (cucumber gray mold): 80%; protectant activity against wheat powdery mildew (wheat powdery mildew; 6.25 mg/L): 85%; protectant activity against wheat powdery mildew (wheat powdery mildew; 25 mg/L): 90%; protectant activity against wheat powdery mildew (wheat powdery mildew; 100 mg/L): 95%; protectant activity against wheat powdery mildew (wheat powdery mildew; 400 mg/L): 100%
10 | Cc1ncnc(NC(C)c2ccc3c(c2)OC(F)(F)O3)c1Cl (stereo not shown) [PC-1] | 0 | 51 | 0 | 52 | 70 | 50 | 100 | – | – | 20 | 0 | inhibition at 8.3 µg/mL (rice blast; [5]): 0%; pest or weed control at 25 µg/mL (corn rust; 25 mg/L): 0%; pest or weed control at 25 µg/mL (wheat powdery mildew; [7]): 0%; pest or weed control at 100 µg/mL (wheat powdery mildew; [8]): 80%
